In patent US5389661A, “Imidazole and 1,2,4-triazole derivatives with angiotensin II antagonist properties” (Warner-Lambert Company, priority 1994, dated 1995):

Target: T1, angiotensin II receptor (rat liver membranes) (Rattus norvegicus, UniProt P25095)
T1 construct: from tissue; host or cells: rat liver membranes
T1 sequence (P25095 1-359): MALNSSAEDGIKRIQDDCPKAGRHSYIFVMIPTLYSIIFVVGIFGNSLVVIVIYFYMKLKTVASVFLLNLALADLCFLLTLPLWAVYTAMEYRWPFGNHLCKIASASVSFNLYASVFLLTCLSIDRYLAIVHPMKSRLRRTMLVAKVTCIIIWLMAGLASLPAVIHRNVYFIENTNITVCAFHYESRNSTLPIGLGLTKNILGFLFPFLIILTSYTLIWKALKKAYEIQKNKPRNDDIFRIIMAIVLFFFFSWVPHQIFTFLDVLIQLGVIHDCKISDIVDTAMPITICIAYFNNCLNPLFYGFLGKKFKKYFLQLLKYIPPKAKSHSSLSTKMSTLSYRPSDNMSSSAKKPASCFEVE
Test: RBAT1, Receptor Binding of Angiotensin II: inhibition of tritiated angiotensin II binding to rat liver membranes
Details: in vitro
Experimental: The effectiveness of the compounds of the instant invention is determined by a test (RBAT1) entitled Receptor Binding of Angiotensin II.

Row | SMILES | IC50
1 | CCCCc1ncc(CC2C(=O)Nc3ccccc32)n1Cc1ccc(C(=O)OC)cc1 (racemic) [Example 10, Benzoic acid, 4-[[2-butyl-5-[(2,3-dihydro-2-oxo-1H-indol-3-yl)methyl]-1H-imidazol-1-yl]methyl]-, methyl ester, (±)] | 53 nM
2 | CCCc1ncc(C=C2C(=O)N(C)c3ccccc32)n1Cc1ccc(C(=O)OC)cc1 [Example 1D, Methyl 4-[[2-propyl-5-[(1,2-dihydro-1-methyl-2-oxo-3H-indol-3-ylidene)methyl]-1H-imidazol-1-yl]methyl]benzoate] | 75 nM
3 | CCCc1ncc(C=C2C(=O)N(C(=O)NC)c3ccccc32)n1Cc1ccc(C(=O)OC)cc1 [Example 2B, Methyl 4-[[(2-propyl-5-[1,2-dihydro-1-(methylaminocarbonyl)-2-oxo-3H-indol-3-ylidene]methyl]-1H-imidazol-1-yl]methyl benzoate] | 610 nM
4 | CCCCc1ncc(C=C2C(=O)N(O)c3ccccc32)n1Cc1ccc(C(=O)OC)cc1 [Example 2C] | 201 nM
5 | CCCc1nc(-n2cccc2)c(/C=C2/C(=O)Nc3ccccc32)n1Cc1ccc(C(=O)O)cc1 [Example 2D, (E)-4-[[5-[(1,2-dihydro-2-oxo-3H-indol-3-ylideny)methyl]-2-propyl-4-(1H-pyrrol-1-yl)-1H-imidazol-1-yl]methyl]benzoic acid] | 86 nM
6 | CCCc1ncc(/C=C2\C(=O)N(C(C)C)c3ccccc32)n1Cc1ccc(C(=O)OC)cc1 [Example 2F, Benzoic acid, 4-[[5-[[2,3-dihydro-1-(1-methylethyl)-2-oxo-1H-indol-3-ylidene]methyl]. -2-propyl-1H-imidazol-1-yl]methyl]-, methyl ester, (Z)] | 67 nM
7 | CCCc1ncc(C=C2C(=O)N(CCC)c3ccccc32)n1Cc1ccc(C(=O)OC)cc1 [Example 2G, Methyl 4-[[5-[(1,2-dihydro-2-oxo-1-propyl-3H-indol-3-ylidenyl)methyl]-2-propyl-1H-imidazol-1-yl]methyl]benzoate] | 746 nM
8 | CCCCc1ncc(C=C2C(=O)Nc3ccccc32)n1Cc1ccc(C(=O)O)cc1 [Example 3, 4-[[2-Butyl-5-[(1,12-dihydro-2-oxo-3H-indol-3-ylidene)methyl]-1H-imidazol-1-yl]methyl]benzoic acid] | 170 nM
9 | CCCc1ncc(C=C2C(=O)N(CCC)c3ccccc32)n1Cc1ccc(C(=O)O)cc1 [Example 3I, 4-[[5-[(1,2-dihydro-2-oxo-1-propyl-3H-indol-3-ylidenyl)methyl]-2-propyl-1H-imidazol-1-yl]methyl]benzoic acid] | 140 nM
10 | CCCCN1C(=O)/C(=C/c2c(-n3cccc3)nc(CCC)n2Cc2ccc(C(=O)OC)cc2)c2ccccc21 [Example 4, Benzoic acid, 4-[[5-[(1-butyl-2,3-dihydro-2-oxo-1H-indol-3-ylidene)methyl]-2=propyl-4=(1H-pyrrol-1-yl)-1H-imidazol-1-yl]methyl]-, methyl ester, (E)] | 590 nM
11 | CCCCc1ncc(C=C2C(=O)N(Cc3nn[nH]n3)c3ccccc32)n1Cc1ccc(C(=O)OC)cc1 [Example 5, Benzoic acid, 4-[[2-butyl-5-[[2,3-dihydro-2-oxo-1-(1H-tetrazol-5-ylmethyl)-1H-indol-3-ylidene]methyl]-1H-imidazol-1-yl]methyl]-, methyl ester, (E)] | 94 nM
12 | CCCCc1ncc(C=C2C(=O)N(CC(=O)OC)c3ccccc32)n1Cc1ccc(-c2nn[nH]n2)cc1 [Example 6, 1H-Indole-1-acetic acid, 3-[[2-butyl-1-[[4-(1H-tetrazol-5-yl)phenyl]methyl]-1H-imidazol-5yl]methylene]-2,3-dihydro-2-oxo-, methyl ester] | 25 nM
13 | CCCCc1ncc(C=C2C(=O)N(CC(=O)O)c3ccccc32)n1Cc1ccc(-c2nnn[nH]2)cc1 [Example 7, 3-[[2-butyl-3-[[4-(1H-tetrazol-5-yl)phenyl]methyl]-3H-imidazol-4-yl]methylene]-2,3-dihydro-2-oxo-1H-indole-1-acetic acid] | 5.7 nM
14 | CCCc1ncc(/C=C2\C(=O)N(CC(=O)OC)C(=O)c3ccccc32)n1Cc1ccc(C(=O)OC)cc1 [Example 8, 2(1H)-Isoquinolineacetic acid, 3,4-dihydro-4-[[1-[[4-(methoxycarbonyl)phenyl]methyl]-2-propyl-1H-imidazol-5-yl]methylene]-1,3-dioxo-, methyl ester, (Z)] | 47 nM
15 | CCCc1ncc(/C=C2/C(=O)N(CC(=O)O)c3ccccc32)n1Cc1ccc(C(=O)O)cc1 [Example 9, (E)-3-[[3-[(4-carboxyphenyl)methyl]-2-propyl-3H-imidazol-4-yl]methylene]-2,3-dihydro-2-oxo-1H-indole-1-acetic acid] | 98 nM

More lines, now with the values ahead:

Row | IC50 | SMILES
16 | 300 nM | CCCc1ncc(/C=C2\C(=O)N(C(CCC)C(=O)OCC)c3cccc(C)c32)n1Cc1ccc(C(=O)OC)cc1 (racemic) [Example 4I, Ethyl (Z)-(±)-2,3,dihydro-3-[[3-[[4-(methoxycarbonylphenyl]methyl]-2-propyl-3H-imidazol-4-yl]methylene]-4-methyl-2-oxo-α-propyl-1H-indole-1-acetat]
17 | 140 nM | CCCCc1nc(Cl)c(/C=C2/C(=O)Nc3ccccc32)n1Cc1ccc(C(=O)O)cc1 [Example 3A, (E)-4-[[2-Butyl-4-chloro-5-[(1,2-dihydro-2-oxo-3H-indol-3-ylidene)]-1H-imidazol-1-yl]methyl]benzoic acid]
18 | 120 nM | CCCCc1ncc(C=C2C(=O)Nc3c(OC)cccc32)n1Cc1ccc(C(=O)O)cc1 [Example 3B, 4-[[2-Butyl-5-[(1,2-dihydro-7-methoxy-2-oxo-3H-indol-3-ylidene)methyl]-1H-imidazol-1-yl]methyl]benzoic acid]
19 | 22 nM | CCCCc1ncc(C=C2C(=O)N(CC(=O)O)c3ccccc32)n1Cc1ccc(C(=O)O)cc1 [Example 3C, 3-[[2-Butyl-1-[(4-carboxyphenyl)methyl]-1H-imidazol-5-yl]methylene]-2,3-dihydro-2-oxo-1H-indole-1-acetic acid]
20 | 123 nM | CCCCc1ncc(C=C2C(=O)N(O)c3ccccc32)n1Cc1ccc(C(=O)O)cc1 [Example 3F]
21 | 20 nM | CCCCc1ncc(/C=C2/C(=O)N(CCC(=O)O)c3ccccc32)n1Cc1ccc(C(=O)O)cc1 [Example 3G, 1H-Indole-1-propanoic acid, 3-[[2-butyl-1-[(4-carboxyphenyl)methyl]-1H-imidazol-5-yl]methylene]-2,3-dihydro-2-oxo -, (E)]
22 | 52 nM | CCCCc1ncc(C=C2C(=O)N(CCCC)c3ccccc32)n1Cc1ccc(C(=O)O)cc1Cl [Example 3H, 4-[[2-butyl-5-[(1-butyl-1,2-dihydro-2-oxo-3H-indol-3-ylidenyl)methyl]-1H-imidazol-1-yl]methyl]-3 chlorobenzoic acid]
23 | 640 nM | CCCc1nc(-n2cccc2)c(/C=C2/C(=O)N(C)c3ccccc32)n1Cc1ccc(C(=O)OC)cc1 [Example 4A, Benzoic acid, 4-[[5-[(2,3-dihydro-1-methyl-2-oxo-1H-indol-3-ylidene)methyl]-2-propyl-4-(1H-pyrrol-1-yl)-1H-imidazol-1-yl]methyl]-, methyl ester, (E)]
24 | 95 nM | CCCc1nc(-n2cccc2)c(/C=C2/C(=O)N(CC(=O)OC)c3ccccc32)n1Cc1ccc(C(=O)OC)cc1 [Example 4B, 1H-Indole-1-acetic acid, 2,3-dihydro-3-[[1-[[4-(methoxycarbonyl)phenyl]methyl]-2-propyl-4-(1H-pyrrol-1-yl)-1H-imidazol-5-yl]methylene]-2-oxo-, methyl ester, (E)]
25 | 358 nM | CCCCc1ncc(C=C2C(=O)N(CCCC)c3ccccc32)n1Cc1ccc(C(=O)OC)cc1 [Example 4C, Benzoic acid, 4-[[2-butyl-5-[(1-butyl-2,3-dihydro-2-oxo-1H-indol-3-ylidene)methyl]-1H-imidazol-1-yl]methyl]-, methyl ester]
26 | 256 nM | CCCCc1ncc(/C=C2/C(=O)N(Cc3ccc(Cl)cc3)c3ccccc32)n1Cc1ccc(C(=O)O)cc1 [Example 4F, Benzoic acid, 4-[[2-butyl-5-[[1-[(4-chlorophenyl)methyl]-2,3-dihydro-2-oxo-1H-indol-3-ylidene]methyl]-1H-imidazol-1-yl]methyl]-, (E)]
27 | 64 nM | CCCCc1ncc(C=C2C(=O)N(OCC(=O)OC)c3ccccc32)n1Cc1ccc(C(=O)OC)cc1 [Example 4G]
28 | 226 nM | CCCCc1ncc(C=C2C(=O)N(CC#N)c3ccccc32)n1Cc1ccc(C(=O)OC)cc1 [Example 4H, Benzoic acid, 4-[[2-butyl-5-[[1-(cyanomethyl)-2,3-dihydro-2-oxo-1H-indol-3-ylidene]methyl]-1H-imidazol-1-yl]methyl]-, methyl ester, (E)]
29 | 686 nM | CCCc1ncc(/C=C2\C(=O)N(CC(=O)OC)c3cccc(C)c32)n1Cc1ccc(C(=O)OC)cc1 [Example 4J, Methyl (Z)-2,3-dihydro-3-[[3-[[4-methoxycarbonylphenyl]methyl]-2-propyl-3H-imidazol-4-yl]methylene]-4-methyl-2-oxo-1H-indole-1-acetate]
30 | 110 nM | CCCCc1ncc(C=C2C(=O)N(CCCC)c3ccccc32)n1Cc1ccc(C(=O)OC)cc1Cl [Example 4K, Methyl 4-[[2-butyl-5-[(1-butyl-1,2-dihydro-2-oxo-3H-indol-3-yliden)methyl]-1H-imidazolyl]methyl]-3-chlorobenzoate]
31 | 12 nM | CCCCc1ncc(C=C2C(=O)N(CC(=O)OCC)c3ccccc32)n1Cc1ccc(-c2nnn[nH]2)cc1 [Example 6A, 1H-Indole-1-acetic acid, 3-[[2-butyl-1-[[4-(1H-tetrazol-5-yl)phenyl]methyl]-1H-imidazol-5yl]methylene]-2,3-dihydro-2-oxo-, ethyl ester]
